target: full-length ATR (Homo sapiens (Human), UniProt Q13535); experiment: ATR Inhibition Assay (radioactive-phosphate incorporation); assay type: biochemical; details: read-out: ATR Ki
Summary of the method: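 Ki(app) was derived by non-linear regression of background-corrected initial rates of 33P incorporation into an 800 μM target peptide, read by phosphocellulose filter scintillation counting. Reaction conditions: 5 nM full-length ATR, 10 μM [γ-33P]ATP, pH 7.5 Tris buffer with MgCl2 and DTT, 25 °C, 10-min preincubation, 24 h run.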

Chain of full-length ATR (Q13535 whole entry): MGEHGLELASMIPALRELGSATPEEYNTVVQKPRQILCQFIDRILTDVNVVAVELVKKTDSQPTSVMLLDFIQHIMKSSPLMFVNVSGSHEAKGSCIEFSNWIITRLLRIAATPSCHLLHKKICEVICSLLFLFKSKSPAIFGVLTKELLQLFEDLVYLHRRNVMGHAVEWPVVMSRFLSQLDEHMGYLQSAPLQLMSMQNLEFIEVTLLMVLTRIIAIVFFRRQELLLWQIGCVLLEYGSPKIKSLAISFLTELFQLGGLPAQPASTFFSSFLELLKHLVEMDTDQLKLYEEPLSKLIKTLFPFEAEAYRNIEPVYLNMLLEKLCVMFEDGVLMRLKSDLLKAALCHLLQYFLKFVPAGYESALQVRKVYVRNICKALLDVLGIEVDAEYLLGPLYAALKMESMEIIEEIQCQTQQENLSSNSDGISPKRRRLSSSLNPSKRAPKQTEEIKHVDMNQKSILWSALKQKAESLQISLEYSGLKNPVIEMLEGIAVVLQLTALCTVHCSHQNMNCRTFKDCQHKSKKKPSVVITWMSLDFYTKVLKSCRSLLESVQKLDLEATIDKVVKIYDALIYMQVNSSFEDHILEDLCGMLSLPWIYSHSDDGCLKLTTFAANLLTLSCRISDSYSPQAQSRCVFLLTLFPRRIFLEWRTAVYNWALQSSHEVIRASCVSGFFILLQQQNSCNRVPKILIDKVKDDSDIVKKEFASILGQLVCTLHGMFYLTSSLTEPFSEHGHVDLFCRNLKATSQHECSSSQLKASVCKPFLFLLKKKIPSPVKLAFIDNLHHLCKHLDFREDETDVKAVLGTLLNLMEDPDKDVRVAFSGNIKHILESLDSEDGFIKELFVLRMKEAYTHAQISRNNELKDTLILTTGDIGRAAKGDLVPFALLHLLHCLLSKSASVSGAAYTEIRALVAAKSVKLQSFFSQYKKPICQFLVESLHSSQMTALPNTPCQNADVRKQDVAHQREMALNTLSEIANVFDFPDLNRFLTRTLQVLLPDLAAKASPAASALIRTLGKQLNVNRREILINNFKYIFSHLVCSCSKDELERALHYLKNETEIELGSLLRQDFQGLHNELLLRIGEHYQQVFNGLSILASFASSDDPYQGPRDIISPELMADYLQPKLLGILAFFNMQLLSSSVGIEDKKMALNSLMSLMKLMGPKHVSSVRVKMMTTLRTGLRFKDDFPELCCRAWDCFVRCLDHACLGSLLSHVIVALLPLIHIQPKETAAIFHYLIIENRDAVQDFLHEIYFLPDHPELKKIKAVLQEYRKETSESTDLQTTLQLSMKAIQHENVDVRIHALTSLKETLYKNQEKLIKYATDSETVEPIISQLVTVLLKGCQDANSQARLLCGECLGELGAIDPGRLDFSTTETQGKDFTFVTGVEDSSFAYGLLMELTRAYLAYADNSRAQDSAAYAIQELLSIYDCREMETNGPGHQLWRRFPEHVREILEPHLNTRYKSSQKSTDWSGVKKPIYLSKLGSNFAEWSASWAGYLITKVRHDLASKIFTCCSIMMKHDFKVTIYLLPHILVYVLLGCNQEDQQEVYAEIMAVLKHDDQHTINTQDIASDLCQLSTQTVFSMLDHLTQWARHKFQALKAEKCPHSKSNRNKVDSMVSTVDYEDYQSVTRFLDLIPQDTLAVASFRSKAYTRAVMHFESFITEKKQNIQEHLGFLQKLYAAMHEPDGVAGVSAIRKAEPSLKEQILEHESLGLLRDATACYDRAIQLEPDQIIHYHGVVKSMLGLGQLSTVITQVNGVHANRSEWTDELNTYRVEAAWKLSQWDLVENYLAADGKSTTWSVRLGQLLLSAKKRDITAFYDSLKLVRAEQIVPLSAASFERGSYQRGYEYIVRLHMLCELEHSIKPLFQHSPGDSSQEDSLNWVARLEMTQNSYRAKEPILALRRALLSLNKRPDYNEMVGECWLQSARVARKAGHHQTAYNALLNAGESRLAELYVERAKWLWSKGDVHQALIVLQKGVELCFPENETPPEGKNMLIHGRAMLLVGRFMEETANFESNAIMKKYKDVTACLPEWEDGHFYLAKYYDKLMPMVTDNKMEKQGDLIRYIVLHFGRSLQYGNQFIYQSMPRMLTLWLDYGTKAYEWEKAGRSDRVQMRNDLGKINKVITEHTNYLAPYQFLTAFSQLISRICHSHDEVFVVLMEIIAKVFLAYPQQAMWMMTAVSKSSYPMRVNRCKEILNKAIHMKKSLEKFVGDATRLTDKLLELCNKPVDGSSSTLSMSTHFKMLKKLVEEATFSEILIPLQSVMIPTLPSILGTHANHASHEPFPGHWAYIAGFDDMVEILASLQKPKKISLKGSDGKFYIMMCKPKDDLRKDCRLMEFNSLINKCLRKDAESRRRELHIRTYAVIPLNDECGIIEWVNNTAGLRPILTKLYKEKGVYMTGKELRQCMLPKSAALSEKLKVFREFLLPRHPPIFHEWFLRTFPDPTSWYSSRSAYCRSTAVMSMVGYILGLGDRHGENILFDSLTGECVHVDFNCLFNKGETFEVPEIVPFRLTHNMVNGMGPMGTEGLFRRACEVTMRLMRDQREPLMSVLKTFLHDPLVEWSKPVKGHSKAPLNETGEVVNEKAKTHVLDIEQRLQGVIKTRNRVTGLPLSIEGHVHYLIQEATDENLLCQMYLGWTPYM

| SMILES | Ki [nM] |
| --- | --- |
| Nc1ncc(-c2cccnc2)nc1-c1nnc(-c2cccs2)[nH]1 [Compound I-142, 5-(pyridin-3-yl)-3-(5-(thiophen-2-yl)-4H-1,2,4-triazol-3-yl)pyrazin-2-amine] | 10 to 100 |
| CC(C)S(=O)(=O)c1ccc(-c2cnc(N)c(-c3nnc(-c4ccc(CN[C@@H](C)CO)cc4F)o3)n2)cc1 [IA-335, (S)-2-(4-(5-(3-amino-6-(4-(isopropylsulfonyl)phenyl)pyrazin-2-yl)-1,3,4-oxadiazol-2-yl)-3-fluorobenzylamino)propan-1-ol] | ≤ 10 |
| Nc1ncc(-c2ccc(S(=O)(=O)C3CCOC3)cc2)nc1-c1nnc(-c2ccccc2F)o1 (stereo not shown) [IA-349, 3-[5-(2-fluorophenyl)-1,3,4-oxadiazol-2-yl]-5-(4-tetrahydrofuran-3-ylsulfonylphenyl)pyrazin-2-amine] | ≤ 10 |
| CN(C)C(=O)c1ccc(-c2cnc(N)c(-c3nnc(C4CC4)o3)n2)cc1 [IA-101, 4-[5-amino-6-(5-cyclopropyl-1,3,4-oxadiazol-2-yl)pyrazin-2-yl]-N,N-dimethyl-benzamide] | 100 to 5000 |
| Nc1ncc(-c2ccc(C(=O)NCCN3CCCCC3)cc2)nc1C(=O)Nc1ccccc1 [Compound I-49, 3-amino-N-phenyl-6-(4-(2-(piperidin-1-yl)ethylcarbamoyl)phenyl) pyrazine-2-carboxamide] | 100 to 5000 |
| CC(C)(C)OC(=O)N1CCCN(C(=O)c2ccc(-c3cnc(N)c(-c4nnc(-c5ccccc5)o4)n3)cc2)CC1 [IA-28] | ≤ 10 |
| CC(C)S(=O)(=O)c1ccc(-c2cnc(N)c(-c3nnc(C4=CCN(C(=O)OC(C)(C)C)CC4)o3)n2)cc1 [IA-95, tert-butyl 4-[5-[3-amino-6-(4-isopropylsulfonylphenyl)pyrazin-2-yl]-1,3,4-oxadiazol-2-yl]-3,6-dihydro-2H-pyridine-1-carboxylate] | 100 to 5000 |
| CN(C)C(=O)c1ccc(-c2cnc(N)c(-c3nnc(-c4ccc(C(O)CO)cc4)o3)n2)cc1 (stereo not shown) [IA-106, 4-[5-amino-6-[5-[4-(1,2-dihydroxyethyl)phenyl]-1,3,4-oxadiazol-2-yl]pyrazin-2-yl]-N,N-dimethyl-benzamide] | 10 to 100 |
| Nc1ncc(-c2cccc(C(=O)N3CCCC3)c2)nc1C(=O)Nc1ccccc1 [Compound I-63, 3-amino-N-phenyl-6-(3-(pyrrolidine-1-carbonyl)phenyl)pyrazine-2-carboxamide] | 100 to 5000 |
| Nc1ncc(-c2cccc(C(=O)NC3CCOCC3)c2)nc1C(=O)Nc1ccccc1 [Compound I-66, 3-amino-N-phenyl-6-(3-(tetrahydro-2H-pyran-4-ylcarbamoyl)phenyl) pyrazine-2-carboxamide] | 10 to 100 |
| NC(=O)Cc1ccccc1-c1cnc(N)c(-c2nnc(-c3ccccc3)o2)n1 [IA-266, 2-[2-[5-amino-6-(5-phenyl-1,3,4-oxadiazol-2-yl)pyrazin-2-yl]phenyl]acetamide] | 10 to 100 |
| CN(C)C(=O)c1ccc(-c2cnc(N)c(-c3nnc(-c4ccc[nH]c4=O)o3)n2)cc1 [IA-53] | 10 to 100 |
| CN(C)C(=O)c1ccc(-c2cnc(N)c(-c3nnc(-c4ccccc4F)o3)n2)cc1 [IA-30] | ≤ 10 |
| CC(C)S(=O)(=O)c1ccc(-c2cnc(N)c(-c3nnc(-c4cc(C#N)cs4)o3)n2)cc1 [IA-143, 5-[5-[3-amino-6-(4-isopropylsulfonylphenyl)pyrazin-2-yl]-1,3,4-oxadiazol-2-yl]thiophene-3-carbonitrile] | 10 to 100 |
| CC(=O)Nc1nnc(-c2nc(-c3ccc(S(=O)(=O)C(C)C)cc3)cnc2N)o1 [IA-177, N-[5-[3-amino-6-(4-isopropylsulfonylphenyl)pyrazin-2-yl]-1,3,4-oxadiazol-2-yl]acetamide] | 10 to 100 |
| Cc1ccc2nc(-c3nc(-c4ccc(C(=O)N5CCCN(C)CC5)cc4)cnc3N)[nH]c2c1 [Compound I-151, (4-(5-amino-6-(6-methyl-1H-benzo[d]imidazol-2-yl)pyrazin-2-yl)phenyl)(4-methyl-1,4-diazepan-1-yl)methanone] | 10 to 100 |
| CN(C)C(=O)c1ccc(-c2cnc(N)c(-c3nnc(Nc4cccnc4)o3)n2)cc1 [IA-44] | 10 to 100 |
| CCNCc1ccc(-c2nnc(-c3nc(-c4ccc(S(=O)(=O)C(C)C)cc4)cnc3N)o2)cc1 [IA-122, 3-[5-[4-(ethylaminomethyl)phenyl]-1,3,4-oxadiazol-2-yl]-5-(4-isopropylsulfonylphenyl)pyrazin-2-amine] | ≤ 10 |
| COc1ccccc1Nc1nnc(-c2nc(-c3ccc(C(=O)N(C)C)cc3)cnc2N)o1 [IA-103, 4-[5-amino-6-[5-(2-methoxyanilino)-1,3,4-oxadiazol-2-yl]pyrazin-2-yl]-N,N-dimethyl-benzamide] | 10 to 100 |
| Nc1ncc(-c2cccc(C(=O)O)c2)nc1C(=O)Nc1ccccc1 [Compound I-8, 3-(5-amino-6-(phenylcarbamoyl)pyrazin-2-yl)benzoic acid] | 100 to 5000 |
| Nc1ncc(-c2ccccc2C(F)(F)F)nc1C(=O)Nc1ccccc1 [Compound I-6, 3-amino-N-phenyl-6-(2-(trifluoromethyl)phenyl)pyrazine-2-carboxamide] | 100 to 5000 |
| N#Cc1ccncc1-c1cnc(N)c(-c2nnc(-c3ccccc3)o2)n1 [IA-153, 3-(5-amino-6-(5-phenyl-1,3,4-oxadiazol-2-yl)pyrazin-2-yl)pyridine-4-carbonitrile] | 10 to 100 |

| SMILES | Ki [nM] |
| --- | --- |
| CN(C)[C@@H]1CCN(C(=O)c2ccc(-c3cnc(N)c(-c4nnc(-c5ccccc5)o4)n3)cc2F)C1 [IA-5] | ≤ 10 |
| Nc1ncc(-c2cccnc2)nc1C(=O)Nc1ccccc1OC(F)(F)F [Compound I-102, 3-amino-6-(pyridin-3-yl)-N-(2-(trifluoromethoxy)phenyl)pyrazine-2-carboxamide] | 10 to 100 |
| CC(C)S(=O)(=O)c1ccc(-c2cnc(N)c(-c3nnc(N4CCNCC4)o3)n2)cc1 [IA-239, 5-(4-isopropylsulfonylphenyl)-3-(5-piperazin-1-yl-1,3,4-oxadiazol-2-yl)pyrazin-2-amine] | 100 to 5000 |
| CCC1CN(C(=O)c2ccc(-c3cnc(N)c(-c4nnc(-c5ccccc5)o4)n3)cc2)CCN1 (stereo not shown) [IA-18] | ≤ 10 |
| CS(=O)(=O)Nc1cccc(-c2cnc(N)c(C(=O)Nc3ccccc3)n2)c1 [Compound I-25, 3-amino-6-(3-(methylsulfonamido)phenyl)-N-phenylpyrazine-2-carboxamide] | 10 to 100 |
| Cc1ccc2nc(-c3nc(-c4ccc(C(=O)N5CCN(C)CC5)cc4)cnc3N)[nH]c2c1 [III-4, (4-(5-amino-6-(6-methyl-1H-benzo[d]imidazol-2-yl)pyrazin-2-yl)phenyl)(4-methylpiperazin-1-yl)methanone] | 10 to 100 |
| CCS(=O)(=O)c1ccc(-c2cnc(N)c(-c3nnc(-c4ccc(CNC)cc4)o3)n2)cc1 [IA-307, 5-(4-(ethylsulfonyl)phenyl)-3-(5-(4-((methylamino)methyl)phenyl)-1,3,4-oxadiazol-2-yl)pyrazin-2-amine] | ≤ 10 |
| CC(C)S(=O)(=O)c1ccc(-c2cnc(N)c(-c3nnc(NC(=O)[C@H]4N[C@H]5CC[C@@H]4C5)o3)n2)cc1 [IA-160, (1R,4S,6S)—N-[5-[3-amino-6-(4-isopropylsulfonylphenyl)pyrazin-2-yl]-1,3,4-oxadiazol-2-yl]-5-azabicyclo[2.2.1]heptane-6-carboxamide] | 100 to 5000 |
| COc1cccc(NC(=O)c2nc(-c3cccnc3)cnc2N)c1 [Compound I-86, 3-amino-N-(3-methoxyphenyl)-6-(pyridin-3-yl)pyrazine-2-carboxamide] | 10 to 100 |
| CN1CCN(C(=O)c2cccc(-c3cnc(N)c(C(=O)Nc4ccccc4)n3)c2)CC1 [Compound I-59, 3-amino-6-(3-(4-methylpiperazine-1-carbonyl)phenyl)-N-phenylpyrazine-2-carboxamide] | 100 to 5000 |
| Nc1ncc(-c2ccc(C(=O)N3CCC(CO)CC3)cc2)nc1C(=O)Nc1ccccc1 [Compound I-79, 3-amino-6-(4-(4-(hydroxymethyl)piperidine-1-carbonyl)phenyl)-N-phenylpyrazine-2-carboxamide] | 10 to 100 |
| Nc1ncc(-c2ccc(C(=O)N3CCNCC3)cc2)nc1-c1nnc(-c2ccccc2)o1 [IA-12] | 10 to 100 |
| CS(=O)(=O)c1ccc(-c2cnc(N)c(C(=O)Nc3ncns3)n2)cc1 [VII-7] | 10 to 100 |
| CC(C)S(=O)(=O)c1ccc(-c2cnc(N)c(-c3nnc(-c4ccc(C5CCCN5)s4)o3)n2)cc1 (stereo not shown) [IA-147, 5-(4-isopropylsulfonylphenyl)-3-[5-(5-pyrrolidin-2-yl-2-thienyl)-1,3,4-oxadiazol-2-yl]pyrazin-2-amine] | ≤ 10 |
| CC(C)S(=O)(=O)c1ccc(-c2cnc(N)c(-c3nnc(-c4ccc(CNCCF)cc4)o3)n2)cc1 [IA-346, 3-[5-[4-[(2-fluoroethylamino)methyl]phenyl]-1,3,4-oxadiazol-2-yl]-5-(4-isopropylsulfonylphenyl)pyrazin-2-amine] | ≤ 10 |
| Cc1cc(NC(=O)c2nc(-c3ccc(S(C)(=O)=O)cc3)cnc2N)ccn1 [VII-2] | 10 to 100 |
| Nc1ncc(-c2ccc(N3CCNCC3)nc2)nc1-c1nnc(-c2ccccc2)o1 [IA-186, 3-(5-phenyl-1,3,4-oxadiazol-2-yl)-5-(6-piperazin-1-yl-3-pyridyl)pyrazin-2-amine] | 100 to 5000 |
| Cc1cnc(NC(=O)c2nc(-c3ccc(S(C)(=O)=O)cc3)cnc2N)s1 [VII-8] | 10 to 100 |
| COC(=O)c1ccc2nc(-c3nc(-c4ccc(S(C)(=O)=O)cc4)cnc3N)[nH]c2c1 [Compound I-116, methyl 2-(3-amino-6-(4-(methylsulfonyl)phenyl)pyrazin-2-yl)-1H-benzo[d]imidazole-6-carboxylate] | 100 to 5000 |
| CC(C)S(=O)(=O)c1ccc(-c2cnc(N)c(-c3nnc(-c4ccc(CNC5COC5)cc4F)o3)n2)cc1 [IA-319, 3-[5-[2-fluoro-4-[(oxetan-3-ylamino)methyl]phenyl]-1,3,4-oxadiazol-2-yl]-5-(4-isopropylsulfonylphenyl)pyrazin-2-amine] | ≤ 10 |
| CN(C)C(=O)c1ccc(-c2cnc(N)c(-c3nnc(Nc4ccccc4)o3)n2)cc1 [IA-32] | 10 to 100 |

Reference: US10479784B2, “Substituted pyrazin-2-amines as inhibitors of ATR kinase” (Vertex Pharmaceuticals Incorporated, priority 2008, dated 2019)
